Patent publication US11813306B2, “Cyclic tetramer compounds as proprotein convertase subtilisin/kexin type 9 (PCSK9) inhibitors for the treatment of metabolic disorders” (NOVARTIS AG, priority 2018, dated 2023)

Biological target: human PCSK9 (Homo sapiens, UniProt Q8NBP7)
Experiment: PCSK9 ligand binding assay (TR-FRET): interference with binding of human PCSK9 to human LDLR
Conditions: for IC50: Human PCSK9 Alexa Fluor 647 / Human LDLR extracellular domain-Europium Kryptate; for Max % inhibition: efficacy (Amax), 100% = 1 uM unlabeled human PCSK9, 0% = DMSO
Procedure, shortened: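 Read-out was TR-FRET ratio (665 nm over 615 nm, 330 nm excitation) between Alexa Fluor 647-human PCSK9 (16 nM added) and Europium Kryptate-human LDLR ectodomain (4 nM added). Compound and PCSK9 were mixed 30 min before LDLR, then incubated 2 h. Inhibition was normalised to DMSO and unlabelled-PCSK9 controls, giving IC50 and Amax.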

Chain of human PCSK9 (Q8NBP7 153-692): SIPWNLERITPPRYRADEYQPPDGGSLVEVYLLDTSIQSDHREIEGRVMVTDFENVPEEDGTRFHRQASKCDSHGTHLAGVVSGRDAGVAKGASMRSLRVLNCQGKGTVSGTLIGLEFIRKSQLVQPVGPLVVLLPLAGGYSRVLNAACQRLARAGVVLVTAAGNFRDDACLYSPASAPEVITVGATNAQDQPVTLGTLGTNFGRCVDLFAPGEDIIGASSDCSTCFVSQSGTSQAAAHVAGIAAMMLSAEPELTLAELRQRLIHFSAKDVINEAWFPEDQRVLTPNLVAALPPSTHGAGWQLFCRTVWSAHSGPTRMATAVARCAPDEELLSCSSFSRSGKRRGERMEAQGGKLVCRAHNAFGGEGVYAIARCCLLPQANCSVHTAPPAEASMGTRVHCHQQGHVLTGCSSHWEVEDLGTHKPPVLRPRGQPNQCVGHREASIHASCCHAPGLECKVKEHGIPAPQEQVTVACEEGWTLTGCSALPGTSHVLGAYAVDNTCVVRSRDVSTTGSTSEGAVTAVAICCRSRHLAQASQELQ
Chain of human PCSK9 (Q8NBP7 31-152 partner limits assumed): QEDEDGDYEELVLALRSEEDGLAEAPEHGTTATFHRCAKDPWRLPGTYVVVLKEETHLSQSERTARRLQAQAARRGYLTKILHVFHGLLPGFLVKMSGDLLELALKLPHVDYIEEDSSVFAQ

## C[C@H]1C(=O)N[C@@H](CO)C(=O)N[C@@]2(Cc3ccc(Cl)cc3)CCCN(C2)C(=O)[C@H](CC2(C)CC2)CC(=O)N1Cc1c(F)cc(Cl)cc1Oc1ccc(-c2cnc(CN(C)C)n2C)cc1 [Compound 144, (3R, 7S, 10S, 13R)-6-(4-chloro-2-(4-(2-((dimethylamino)methyl)-1-methyl-1H-imidazol-5-yl)phenoxy)-6-fluorobenzyl)-13-(4-chlorobenzyl)-10-(hydroxymethyl)-7-methyl-3-((1-methylcyclopropyl)methyl)-1,6,9,12-tetraazabicyclo[11.3.1]heptadecane-2,5,8,11-tetraone]
  IC50: 3.96 nM
  Max % inhibition: 113.1%

## C[C@H]1C(=O)N[C@@H](CO)C(=O)N[C@@]2(Cc3ccc(Cl)cc3)CCCN(C2)C(=O)[C@H](CC2CC2)CC(=O)N1Cc1c(F)cc(Cl)cc1Oc1ccc(-c2cnc(CN(C)C)n2C)cc1 [Compound 145, (3R, 7S, 10S, 13R)-6-(4-chloro-2-(4-(2-((dimethylamino)methyl)-1-methyl-1H-imidazol-5-yl)phenoxy)-6-fluorobenzyl)-13-(4-chlorobenzyl)-3-(cyclopropylmethyl)-10-(hydroxymethyl)-7-methyl-1,6,9,12-tetraazabicyclo[11.3.1]heptadecane-2,5,8,11-tetraone]
  IC50: 0.95 nM
  Max % inhibition: 112.3%

## C[C@H]1C(=O)N[C@@H](CO)C(=O)N[C@@]2(Cc3ccc(Cl)cc3)CCCN(C2)C(=O)[C@H](CC(C)(F)F)CC(=O)N1Cc1c(F)cc(Cl)cc1Oc1ccc(-c2cnc(CN(C)C)n2C)cc1 [Compound 146, (3S, 7S, 10S, 13R)-6-(4-chloro-2-(4-(2-((dimethylamino)methyl)-1-methyl-1H-imidazol-5-yl)phenoxy)-6-fluorobenzyl)-13-(4-chlorobenzyl)-3-(2,2-difluoropropyl)-10-(hydroxymethyl)-7-methyl-1,6,9,12-tetraazabicyclo[11.3.1]heptadecane-2,5,8,11-tetraone]
  IC50: 0.57 nM
  Max % inhibition: 111.4%

## C[C@H]1C(=O)N[C@@H](CO)C(=O)N[C@@]2(Cc3ccc(Cl)cc3)CCCN(C2)C(=O)[C@H](CC(F)(F)F)CC(=O)N1Cc1ccc(Cl)cc1Oc1ccc(-c2cnc(CNC(C)(C)C)n2C)cc1 [Compound 147, (3S, 7S, 10S, 13R)-6-(2-(4-(2-((tert-butylamino)methyl)-1-methyl-1H-imidazol-5-yl)phenoxy)-4-chlorobenzyl)-13-(4-chlorobenzyl)-10-(hydroxymethyl)-7-methyl-3-(2,2,2-trifluoroethyl)-1,6,9,12-tetraazabicyclo[11.3.1]heptadecane-2,5,8,11-tetraone]
  IC50: 0.72 nM
  Max % inhibition: 110.6%

## C[C@H]1C(=O)N[C@@H](CO)C(=O)N[C@@]2(Cc3ccc(Cl)cc3)CCCN(C2)C(=O)[C@H](CC2CC2)CC(=O)N1Cc1ccc(Cl)cc1Oc1ccc(-c2cnc(CNC(C)(C)C)n2C)cc1 [Compound 148, (3R, 7S, 10S, 13R)-6-(2-(4-(2-((tert-butylamino)methyl)-1-methyl-1H-imidazol-5-yl)phenoxy)-4-chlorobenzyl)-13-(4-chlorobenzyl)-3-(cyclopropylmethyl)-10-(hydroxymethyl)-7-methyl-1,6,9,12-tetraazabicyclo[11.3.1]heptadecane-2,5,8,11-tetraone]
  IC50: 1.09 nM
  Max % inhibition: 111.9%

## COC[C@@H]1NC(=O)[C@H](C)N(Cc2ccc(Cl)cc2Oc2ccc(-c3cnc(CNC(C)(C)C)n3C)cc2)C(=O)C[C@@H](Cc2ccccc2)C(=O)N2CCC[C@@](Cc3ccc(Cl)cc3)(C2)NC1=O [Compound 149, (3R, 7S, 10S, 13R)-3-benzyl-6-(2-(4-(2-((tert-butylamino)methyl)-1-methyl-1H-imidazol-5-yl)phenoxy)-4-chlorobenzyl)-13-(4-chlorobenzyl)-10-(methoxymethyl)-7-methyl-1,6,9,12-tetraazabicyclo[11.3.1]heptadecane-2,5,8,11-tetraone]
  IC50: 0.75 nM
  Max % inhibition: 111.4%

## CNCc1ncc(-c2ccc(Oc3cc(Cl)ccc3CN3C(=O)C[C@@H](Cc4ccccc4)C(=O)N4CCC[C@@](Cc5ccc(Cl)cc5)(C4)NC(=O)[C@H](CO)NC(=O)[C@@H]3C)cc2)n1C [Compound 150, (3R, 7S, 10S, 13R)-3-benzyl-6-(4-chloro-2-(4-(1-methyl-2-((methylamino)methyl)-1H-imidazol-5-yl)phenoxy)benzyl)-13-(4-chlorobenzyl)-10-(hydroxymethyl)-7-methyl-1,6,9, 12-tetraazabicyclo[11.3.1]heptadecane-2,5,8,11-tetraone]
  IC50: 0.85 nM
  Max % inhibition: 105.4%

## C[C@H]1C(=O)N[C@@H](CO)C(=O)N(C)[C@@]2(Cc3ccc(Cl)cc3)CCCN(C2)C(=O)[C@@H](CC(F)(F)F)CC(=O)N1Cc1c(F)cc(Cl)cc1Oc1ccc(-c2cnc(CN(C)C)n2C)cc1 [Compound 151, (3R, 7S, 10S, 13R)-6-(4-chloro-2-(4-(2-((dimethylamino)methyl)-1-methyl-1H-imidazol-5-yl)phenoxy)-6-fluorobenzyl)-13-(4-chlorobenzyl)-10-(hydroxymethyl)-7,12-dimethyl-3-(2,2,2-trifluoroethyl)-1,6,9,12-tetraazabicyclo[11.3.1]heptadecane-2,5,8,11-tetraone]
  IC50: 5.69 nM
  Max % inhibition: 107.5%

## CCN(Cc1ncc(-c2ccc(Oc3cc(Cl)cc(F)c3CN3C(=O)C[C@@H](CC(F)(F)F)C(=O)N4CCC[C@@](Cc5ccc(Cl)cc5)(C4)NC(=O)[C@H](CO)NC(=O)[C@@H]3C)cc2)n1C)C1(C)CC1 [Compound 152, (3S, 7S, 10S, 13R)-6-(4-chloro-2-(4-(2-((ethyl(1-methylcyclopropyl)amino)methyl)-1-methyl-1H-imidazol-5-yl)phenoxy)-6-fluorobenzyl)-13-(4-chlorobenzyl)-10-(hydroxymethyl)-7-methyl-3-(2,2,2-trifluoroethyl)-1,6,9,12-tetraazabicyclo[11.3.1]heptadecane-2,5,8,11-tetraone]
  IC50: 3.29 nM
  Max % inhibition: 103.4%

## C[C@H]1C(=O)N[C@@H](CO)C(=O)N[C@@]2(Cc3ccc(Cl)cc3)CCCN(C2)C(=O)[C@H](CC2CC2)CC(=O)N1Cc1c(F)cc(Cl)cc1Oc1ccc(-c2cnc(CNC3CCC3)n2C)cc1 [Compound 153, (3R, 7S, 10S, 13R)-6-(4-chloro-2-(4-(2-((cyclobutylamino)methyl)-1-methyl-1H-imidazol-5-yl)phenoxy)-6-fluorobenzyl)-13-(4-chlorobenzyl)-3-(cyclopropylmethyl)-10-(hydroxymethyl)-7-methyl-1,6,9,12-tetraazabicyclo[11.3.1]heptadecane-2,5,8,11-tetraone]
  IC50: 0.93 nM
  Max % inhibition: 100.4%

## C[C@H]1C(=O)N[C@@H](CO)C(=O)N[C@@]2(Cc3ccc(Cl)cc3)CCCN(C2)C(=O)[C@H](CC2CC2)CC(=O)N1Cc1c(F)cc(Cl)cc1Oc1ccc(-c2cnc(CNC(C)(C)C)n2C)cc1 [Compound 154, (3R, 7S, 10S, 13R)-6-(2-(4-(2-((tert-butylamino)methyl)-1-methyl-1H-imidazol-5-yl)phenoxy)-4-chloro-6-fluorobenzyl)-13-(4-chlorobenzyl)-3-(cyclopropylmethyl)-10-(hydroxymethyl)-7-methyl-1,6,9,12-tetraazabicyclo[11.3.1]heptadecane-2,5,8,11-tetraone]
  IC50: 0.71 nM
  Max % inhibition: 104.6%

## C[C@H]1C(=O)N[C@@H](CO)C(=O)N[C@@]2(Cc3ccc(Cl)cc3)CCCN(C2)C(=O)[C@H](CC2CCC2)CC(=O)N1Cc1c(F)cc(Cl)cc1Oc1ccc(-c2cnc(CN(C)C)n2C)cc1 [Compound 155, (3R, 7S, 10S, 13R)-6-(4-chloro-2-(4-(2-((dimethylamino)methyl)-1-methyl-1H-imidazol-5-yl)phenoxy)-6-fluorobenzyl)-13-(4-chlorobenzyl)-3-(cyclobutylmethyl)-10-(hydroxymethyl)-7-methyl-1,6,9,12-tetraazabicyclo[11.3.1]heptadecane-2,5,8,11-tetraone]
  IC50: 0.95 nM
  Max % inhibition: 101.4%

## COC[C@@H]1NC(=O)[C@H](C)N(Cc2c(F)cc(Cl)cc2Oc2ccc(-c3cnc(CN4CCC4)n3C)cc2)C(=O)C[C@@H](CC(F)(F)F)C(=O)N2CCC[C@@](Cc3ccc(Cl)cc3)(C2)N(C)C1=O [Compound 157, (3S, 7S, 10S, 13R)-6-(2-(4-(2-(azetidin-1-ylmethyl)-1-methyl-1H-imidazol-5-yl)phenoxy)-4-chloro-6-fluorobenzyl)-13-(4-chlorobenzyl)-10-(methoxymethyl)-7,12-dimethyl-3-(2,2,2-trifluoroethyl)-1,6,9,12-tetraazabicyclo[11.3.1]heptadecane-2,5,8,11-tetraone]
  IC50: 1.18 nM
  Max % inhibition: 104.7%

## COC[C@@H]1NC(=O)[C@H](C)N(Cc2c(F)cc(Cl)cc2Oc2ccc(-c3cnc(CN(C)C)n3C)cc2)C(=O)C[C@@H](CC(C)(F)F)C(=O)N2CCC[C@@](Cc3ccc(Cl)cc3)(C2)N(C)C1=O [Compound 158, (3S, 7S, 10S, 13R)-6-(4-chloro-2-(4-(2-((dimethylamino)methyl)-1-methyl-1H-imidazol-5-yl)phenoxy)-6-fluorobenzyl)-13-(4-chlorobenzyl)-3-(2,2-difluoropropyl)-10-(methoxymethyl)-7,12-dimethyl-1,6,9,12-tetraazabicyclo[11.3.1]heptadecane-2,5,8,11-tetraone]
  IC50: 0.96 nM
  Max % inhibition: 110.3%

## COC[C@@H]1NC(=O)[C@H](C)N(Cc2c(F)cc(Cl)cc2Oc2ccc(-c3cnc(CN(C)C)n3C)cc2)C(=O)C[C@@H](Cc2ccccc2)C(=O)N2CCC[C@@](Cc3ccc(Cl)cc3)(C2)N(C)C1=O [Compound 159, (3R, 7S, 10S, 13R)-3-benzyl-6-(4-chloro-2-(4-(2-((dimethylamino)methyl)-1-methyl-1H-imidazol-5-yl)phenoxy)-6-fluorobenzyl)-13-(4-chlorobenzyl)-10-(methoxymethyl)-7,12-dimethyl-1,6,9,12-tetraazabicyclo[11.3.1]heptadecane-2,5,8,11-tetraone]
  IC50: 1.25 nM
  Max % inhibition: 114.0%
